Test results: patent US6864275B1, “Compounds and methods for use thereof in the treatment of cancer” (UAF Technologies and Research, LLC, priority 1997, dated 2005)

Key:
Tubulin = experiment: Microtubule inhibition assay (tubulin polymerization, absorbance at 350 nm); format: biochemical, bovine; details: compound at 2 μM, after 30 minutes
Procedure: The benzimidazole derivatives of this invention were evaluated for their ability to inhibit formation of microtubules, following the procedure of Luduena, R. F. and M. C. […] Microtubule polymerization was followed by performing the reaction in a cuvette and monitoring UV absorbance at 350 nm, allowing direct visualization of the time course of the polymerization.

B16 murine melanoma = experiment: MTT cell growth inhibition, B16 melanoma cells; format: cell-based; details: 3-6 days incubation
Procedure: (§1) The following cell culture tests were performed to test the toxicity of benzimidazole derivative compounds of the present invention on colon and melanoma tumor cells. The viability of the cells were tested by looking at MTT (3-[4,5-dimethylthiazol-2-yl]-2,5-diphenyltetrazolium bromide) reduction. MTT assay is a well known measure of cell viability.
(§2) The colon tumor cells (HT29) and the melanoma cells (B16 murine melanoma) were seeded (1000-2000 cells) into each well of a 96-well microtiter plate and allowed to grow. Twenty-four hours later, increasing concentrations of each benzimidazole derivative were added to the plates and the cells were allowed to incubate for 3-6 days in the presence of the drugs. MTT reagent was then added to the wells and allowed to incubate for 4 hours at 37° C., after which the formazan metabolite was solubilized with acidic isopropanol and the absorbance was read. Experimental controls included blank wells to which no cells were added (zero point of formazan absorbance) and control wells to which no drug was added (highest level of formazan absorbance). Each drug concentration was tested in duplicate and the resulting average absorbance was plotted against drug concentration using the EZ-ED50 computer program on a personal computer interfaced to the microtiter plate reader. […] The IC50 value is then derived from this equation by EZ-ED50.

colon tumor cells (HT29) = experiment: MTT cell growth inhibition, HT29 colon tumor cells; format: cell-based; details: 3-6 days incubation, read-out: IC50 Human Colon Carcinoma
Procedure: as §1, §2

Row | Compound | IC50 (B16 murine melanoma) | IC50 (colon tumor cells (HT29)) | Tubulin Polymerization Inhibition, % Inhibition (Tubulin)
1 | COC(=O)Nc1nc2c(OC(=O)c3cc(OC)c(OC)c(OC)c3)cccc2[nH]1 [Cpd. No. 1-2] | 14000 nM | 26300 nM | 35%
2 | COC(=O)Nc1nc2ccc(C(=O)NNc3ccccc3)cc2[nH]1 [Cpd. No. 2-12] | 271000 nM | 25400 nM | 50%
3 | COC(=O)Nc1nc2ccc(C(=O)NCC3CCCO3)cc2[nH]1 (centres unmarked) [2-4] | 47200 nM | 35700 nM | 36%
4 | CCC(C)CNC(=O)c1ccc2nc(NC(=O)OC)[nH]c2c1 (centres unmarked) [2-8] | 5000 nM | 4900 nM | none
5 | COC(=O)Nc1nc2ccc(C(=O)OC(CF)CF)cc2[nH]1 [3-15] | 940 nM | 610 nM | 45%
6 | COC(=O)Nc1nc2ccc(C(=O)OCCOCCO)cc2[nH]1 [Cpd. No. 3-5] | 2600 nM | – | 10%
7 | COC(=O)Nc1nc2ccc(C(=O)OC(CCl)CCl)cc2[nH]1 [Cpd. No. 3-12] | 990 nM | 2100 nM | 11%
8 | COC(=O)Nc1nc2ccc(C(=O)NCCN(C)C)cc2[nH]1 [Cpd. No. 2-14] | 403000 nM | 158000 nM | none
9 | COC(=O)Nc1nc2ccc(C(=O)NCCN3CCOCC3)cc2[nH]1 [2-2] | 80500 nM | 121000 nM | 11%
10 | COC(=O)Nc1nc2ccc(C(=O)Nc3cc(OC)c(OC)c(OC)c3)cc2[nH]1 [2-15] | 6100 nM | 4200 nM | 5%
11 | COC(=O)Nc1nc2ccc(C(=O)OCCF)cc2[nH]1 [3-17] | 970 nM | 300 nM | 8%
12 | COC(=O)Nc1nc2ccc(C(=O)NCCCN(C)C)cc2[nH]1 [2-10] | 553000 nM | 447000 nM | 5%
13 | CCCCN(C)C(=O)c1ccc2nc(NC(=O)OC)[nH]c2c1 [2-17] | 4600 nM | 2500 nM | none
14 | COC(=O)Nc1nc2ccc(C(=O)NCCC(C)C)cc2[nH]1 [2-5] | 5900 nM | 5100 nM | 37%
15 | COC(=O)Nc1nc2ccc(C(=O)OCC(F)(F)C(F)(F)F)cc2[nH]1 [3-14] | 588000 nM | 314000 nM | 23%
16 | CCCN(CCC)C(=O)c1ccc2nc(NC(=O)OC)[nH]c2c1 [2-18] | 9400 nM | 3100 nM | 42%
17 | COC(=O)Nc1nc2ccc(C(=O)OCCN(C)C)cc2[nH]1 [Cpd. No. 3-8] | 70400 nM | 48600 nM | none
18 | CCN(CC)CCCNC(=O)c1ccc2nc(NC(=O)OC)[nH]c2c1 [Cpd. No. 2-1] | 530000 nM | 398000 nM | 24%
19 | COC(=O)Nc1nc2ccc(NC(=O)CC(C)CC(C)(C)C)cc2[nH]1 (centres unmarked) [Cpd. No. 5-1] | 6600 nM | 7000 nM | none
20 | COC(=O)Nc1nc2ccc(C(=O)OC(CBr)CBr)cc2[nH]1 [3-18] | 1200 nM | 2100 nM | none
21 | COCCNC(=O)c1ccc2nc(NC(=O)OC)[nH]c2c1 [2-11] | 30500 nM | 17100 nM | 19%
22 | CCC(C)NC(=O)c1ccc2nc(NC(=O)OC)[nH]c2c1 (centres unmarked) [2-3] | 2900 nM | 1600 nM | 26%
23 | COC(=O)Nc1nc2ccc(C(=O)Nc3ccccc3O)cc2[nH]1 [2-13] | 2800 nM | 2300 nM | 27%
24 | COC(=O)Nc1nc2ccc(C(=O)OCC=CCO)cc2[nH]1 [3-10] | 1000 nM | 600 nM | none
25 | COC(=O)Nc1nc2ccc(C(=O)OCCCCCO)cc2[nH]1 [3-11] | 248000 nM | 107000 nM | 50%
26 | COC(=O)Nc1nc2c(OC(=O)CC(C)CC(C)(C)C)cccc2[nH]1 (centres unmarked) [Cpd. No. 1-1] | 20100 nM | 15800 nM | 38%

Now those with a lower IC50 (B16 murine melanoma), led by results:

Row | IC50 (B16 murine melanoma) | IC50 (colon tumor cells (HT29)) | Compound | Tubulin Polymerization Inhibition, % Inhibition (Tubulin)
27 | 250 nM | 170 nM | COC(=O)Nc1nc2ccc(OC(=O)c3cc(OC)c(OC)c(OC)c3)cc2[nH]1 [Cpd. No. 4-1] | 2%
28 | 85 nM | 33 nM | COC(=O)Nc1nc2ccc(C(=O)OCc3ccccc3)cc2[nH]1 [3-7] | 26%
29 | 410 nM | 420 nM | COC(=O)Nc1nc2ccc(C(=O)NCCC(C)(C)C)cc2[nH]1 [2-7] | 43%
30 | 62 nM | 30 nM | COC(=O)Nc1nc2ccc(C(=O)OC(C)C3CC3)cc2[nH]1 (centres unmarked) [3-16] | 44%
31 | 84 nM | 27 nM | CCOCCOCCOC(=O)c1ccc2nc(NC(=O)OC)[nH]c2c1 [Cpd. No. 3-4] | 12%
32 | 370 nM | 228000 nM | CCC(CC)NC(=O)c1ccc2nc(NC(=O)OC)[nH]c2c1 [2-9] | 16%
33 | 220 nM | 59 nM | C=CCOC(=O)c1ccc2nc(NC(=O)OC)[nH]c2c1 [3-3] | 42%
34 | 82 nM | 36 nM | COC(=O)Nc1nc2ccc(C(=O)OCCOCCCl)cc2[nH]1 [3-2] | 14%
35 | < 1 nM | 13 nM | COC(=O)Nc1nc2ccc(C(=O)OCCC(C)CC(C)(C)C)cc2[nH]1 (centres unmarked) [3-20] | 35%
36 | 320 nM | 230 nM | COC(=O)Nc1nc2ccc(C(=O)N(C)C3CCCCC3)cc2[nH]1 [Cpd. No. 2-16] | 39%
37 | 77 nM | 46 nM | COC(=O)Nc1nc2ccc(C(=O)OCCC(C)CCC=C(C)C)cc2[nH]1 (centres unmarked) [3-21] | 2%
38 | 840 nM | 500 nM | COC(=O)Nc1nc2ccc(C(=O)NC(C)CC(C)C)cc2[nH]1 (centres unmarked) [Cpd. No. 2-6] | 12%
39 | 210 nM | 54 nM | COC(=O)Nc1nc2ccc(C(=O)OCCCCl)cc2[nH]1 [3-9] | none
